Counter-ions that a name gives are not always drawn. Bounds are passed on as bounds.
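For IC50 in this document: membranes from SH-SY5Y cells with stable human H4 receptor expression, incubated with GDP 10 µM, radioactivity retained on filters counted by liquid scintillation.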
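For Ki in this document: radioligand displacement of a [3H]-labelled ligand from membranes of CHO cells stably expressing human H4 receptor, bound radioactivity counted on filters by liquid scintillation.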

T1 sequence (Q9H3N8 whole entry): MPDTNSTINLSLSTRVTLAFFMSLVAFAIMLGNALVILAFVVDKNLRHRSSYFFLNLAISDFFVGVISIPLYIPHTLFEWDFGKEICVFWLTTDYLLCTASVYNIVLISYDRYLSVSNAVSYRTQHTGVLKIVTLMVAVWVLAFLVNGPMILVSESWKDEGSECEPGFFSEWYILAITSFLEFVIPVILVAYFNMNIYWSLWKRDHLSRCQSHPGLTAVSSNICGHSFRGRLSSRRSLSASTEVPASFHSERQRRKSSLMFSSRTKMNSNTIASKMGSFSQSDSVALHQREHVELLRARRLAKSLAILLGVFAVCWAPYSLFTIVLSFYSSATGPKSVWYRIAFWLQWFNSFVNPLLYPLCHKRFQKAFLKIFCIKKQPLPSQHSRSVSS

The first assay concerns the target T1, human H4 receptor (Homo sapiens, UniProt Q9H3N8). Kind of assay: biochemical.
For the molecule `CN1CCC(OC2c3ccccc3CCn3cc(-c4ccccc4Cl)nc32)CC1` (single isomer, unassigned) [Example 54B, 2-(2-chlorophenyl)-4-(1-methylpiperidin-4-yloxy)-9,10-dihydro-4H-3,10a-diaza-benzo[f]azulene], the IC50 (in general, the concentration needed to halve the response being measured) was less than 30 nM.
Molecule `Cc1c(-c2ccccc2)nc2n1CCc1ccccc1C2OC1CCN(C)CC1` (single isomer, unassigned) [Example 135B, 1-methyl-4-(1-methyl-piperidin-4-yloxy)-2-phenyl-9,10-dihydro-4H-3,10a-diaza-benzo[f]azulene] returned an IC50 of less than 30 nM.
Molecule `Cc1ccc(-c2cn3c(n2)C(OC2CCN(C)CC2)c2ccccc2CC3)cc1` (centres unmarked) [Example 5, 4-(1-methylpiperidin-4-yloxy)-2-p-tolyl-9,10-dihydro-4H-3,10a-diaza-benzo[f]azulene] yielded an IC50 of less than 300 nM.
`Cc1cccc(-c2cn3c(n2)C(OC2CCN(C)CC2)c2ccccc2CC3)c1` (centres unmarked) [Example 6, 4-(1-methyl-piperidin-4-yloxy)-2-m-tolyl-9,10-dihydro-4H-3,10a-diaza-benzo[f]azulene] returned a half-inhibitory concentration (IC50) of less than 300 nM.

In a further assay the target is T1, human H4 receptor. Kind of assay: biochemical. The source holds these as a separate data set.
For `CN1CCC(OC2c3ccccc3CCn3cc(-c4ccccc4Cl)nc32)CC1` (single isomer, unassigned) [Example 54B, 2-(2-chlorophenyl)-4-(1-methylpiperidin-4-yloxy)-9,10-dihydro-4H-3,10a-diaza-benzo[f]azulene], the inhibition constant Ki (in general, the dissociation constant of the complex between target and ligand, obtained from inhibition or displacement) was less than 300 nM.
`Cc1c(-c2ccccc2)nc2n1CCc1ccccc1C2OC1CCN(C)CC1` (single isomer, unassigned) [Example 135B, 1-methyl-4-(1-methyl-piperidin-4-yloxy)-2-phenyl-9,10-dihydro-4H-3,10a-diaza-benzo[f]azulene] displayed an inhibition constant (Ki) of less than 30 nM.
`Cc1ccc(-c2cn3c(n2)C(OC2CCN(C)CC2)c2ccccc2CC3)cc1` (centres unmarked) [Example 5, 4-(1-methylpiperidin-4-yloxy)-2-p-tolyl-9,10-dihydro-4H-3,10a-diaza-benzo[f]azulene] came in with a Ki of less than 30 nM.
For `Cc1cccc(-c2cn3c(n2)C(OC2CCN(C)CC2)c2ccccc2CC3)c1` (centres unmarked) [Example 6, 4-(1-methyl-piperidin-4-yloxy)-2-m-tolyl-9,10-dihydro-4H-3,10a-diaza-benzo[f]azulene], the inhibition constant Ki is less than 300 nM.
On to `Cc1c(-c2ccc(NC(=S)NC3CC3)cc2)nc2n1CCc1ccccc1C2OC1CCN(C)CC1` (centres unmarked) [Example 208, 1-cyclopropyl-3-{4-[1-methyl-4-(1-methylpiperidin-4-yloxy)-9,10-dihydro-4H-3,10a-diaza-benzo[f]azulen-2-yl]-phenyl}-thiourea], for which the Ki was less than 300 nM.
On the same count and under the same terms, with `Cc1c(-c2ccc(NC(=O)NC(C)(C)C)cc2)nc2n1CCc1ccccc1C2OC1CCN(C)CC1` (centres unmarked) [Example 209, 1-tertbutyl-3-{4-[1-methyl-4-(1-methylpiperidin-4-yloxy)-9,10-dihydro-4H-3,10a-diaza-benzo[f]azulen-2-yl]-phenyl}-urea] the figure was less than 30 nM; with `Cc1c(C(O)C(C)C)nc2n1CCc1ccccc1C2OC1CCN(C)CC1` (centres unmarked) [Example 210, 2-methyl-1-[1-methyl-4-(1-methylpiperidin-4-yloxy)-9,10-dihydro-4H-3,10a-diaza-benzo[f]azulen-2-yl]-propan-1-ol, oxalate], less than 1000 nM.
Consider `Cc1c(-c2ccc(SCCNC(=N)N)cc2)nc2n1CCc1ccccc1C2OC1CCN(C)CC1` (centres unmarked) [Example 211, N-(2-{4-[1-methyl-4-(1-methylpiperidin-4-yloxy)-9,10-dihydro-4H-3,10a-diaza-benzo[f]azulen-2-yl]-phenylsulfanyl}-ethyl)-guanidine], for which the inhibition constant Ki was less than 30 nM.
On to `CN1CCC(OC2c3ccccc3CCn3cc(-c4ccc(C(=O)NCCO)cc4)nc32)CC1` (centres unmarked) [Example 212, N-(2-hydroxyethyl)-4-[4-(1-methylpiperidin-4-yloxy)-9,10-dihydro-4H-3,10a-diaza-benzo[f]azulen-2-yl]benzamide], for which the Ki is less than 1000 nM.
Molecule `Cc1c(-c2ccc(NC(=O)NC34CC5CC(CC(C5)C3)C4)cc2)nc2n1CCc1ccccc1C2OC1CCN(C)CC1` (centres unmarked) [Example 213, 1-adamantan-1-yl-3-{4-[1-methyl-4-(1-methylpiperidin-4-yloxy)-9,10-dihydro-4H-3,10a-diaza-benzo[f]azulen-2-yl]-phenyl}-urea] came in with an inhibition constant (Ki) of less than 30 nM.
Consider `CN1CCC(OC2c3ccccc3CCn3cc(-c4ccc(C(=O)N5CCC(=O)CC5)cc4)nc32)CC1` (centres unmarked) [Example 215, 1-{4-[4-(1-methylpiperidin-4-yloxy)-9,10-dihydro-4H-3,10a-diaza-benzo[f]azulen-2-yl]-benzoyl}-piperidin-4-one], for which the Ki was less than 300 nM.
Still for that read-out and setting: as for `Cc1c(-c2ccc(C(=O)NC3CCC(O)CC3)cc2)nc2n1CCc1ccccc1C2OC1CCN(C)CC1` (centres unmarked) [Example 216, N-(4-hydroxycyclohexyl)-4-[1-methyl-4-(1-methylpiperidin-4-yloxy)-9,10-dihydro-4H-3,10a-diaza-benzo[f]azulen-2-yl]-benzamide], the figure is less than 300 nM; as for `Cc1c(-c2ccc(C(=O)NCCO)cc2)nc2n1CCc1ccccc1C2OC1CCN(C)CC1` (centres unmarked) [Example 217, N-(2-hydroxyethyl)-4-[1-methyl-4-(1-methylpiperidin-4-yloxy)-9,10-dihydro-4H-3,10a-diaza-benzo[f]azulen-2-yl]-benzamide], less than 300 nM.
As to `Cc1c(-c2ccc(C(=O)N3CCC(=O)CC3)cc2)nc2n1CCc1ccccc1C2OC1CCN(C)CC1` (centres unmarked) [Example 218, 1-{4-[1-methyl-4-(1-methylpiperidin-4-yloxy)-9,10-dihydro-4H-3,10a-diaza-benzo[f]azulen-2-yl]-benzoyl}-piperidin-4-one], the inhibition constant Ki was less than 300 nM.
As for `Cc1c(-c2ccc(C(=O)N3CCC(O)CC3)cc2)nc2n1CCc1ccccc1C2OC1CCN(C)CC1` (centres unmarked) [Example 220, (4-hydroxypiperidin-1-yl)-{4-[1-methyl-4-(1-methylpiperidin-4-yloxy)-9,10-dihydro-4H-3,10a-diaza-benzo[f]azulen-2-yl]-phenyl}-methanone], the inhibitory constant (Ki) was less than 300 nM.
Still for that read-out and setting: as for `Cc1c(-c2ccc(CCNC(=O)OC(C)(C)C)cc2)nc2n1CCc1ccccc1C2OC1CCN(C)CC1` (centres unmarked) [Example 223, (2-{4-[1-methyl-4-(1-methylpiperidin-4-yloxy)-9,10-dihydro-4H-3,10a-diaza-benzo[f]azulen-2-yl]-phenyl}-ethyl)-carbamic acid tert-butyl ester], the figure is less than 30 nM; as for `Cc1c(C#CCCO)nc2n1CCc1ccccc1C2OC1CCN(C)CC1` (centres unmarked) [Example 227, 4-[1-methyl-4-(1-methylpiperidin-4-yloxy)-9,10-dihydro-4H-3,10a-diaza-benzo[f]azulen-2-yl]-but-3-yn-1-ol], less than 300 nM.
`Cc1c(CCC(C)(C)C)nc2n1CCc1ccccc1C2OC1CCN(C)CC1` (centres unmarked) [Example 229, 2-(3,3-dimethyl-butyl)-1-methyl-4-(1-methylpiperidin-4-yloxy)-9,10-dihydro-4H-3,10a-diaza-benzo[f]azulene] came in with an inhibitory constant (Ki) of less than 30 nM.
On the same count and under the same terms, as for `CN1CCC(OC2c3ccccc3CCn3c2nc(-c2ccccc2)c3C#N)CC1` (centres unmarked) [Example 235, 4-(1-methylpiperidin-4-yloxy)-2-phenyl-9,10-dihydro-4H-3,10a-diaza-benzo[f]azulene-1-carbonitrile], the figure is less than 30 nM; as for `CCCc1nc2n(c1-c1ccccc1)CCc1ccccc1C2OC1CCN(C)CC1` (centres unmarked) [Example 246, 4-(1-methyl-piperidin-4-yloxy)-1-phenyl-2-propyl-9,10-dihydro-4H-3,10a-diaza-benzo[f]azulene], less than 300 nM.
Regarding `Cc1c(-c2ccncc2)nc2n1CCc1ccccc1C2OC1CCN(C)CC1` (centres unmarked) [Example 250, 1-methyl-4-(1-methylpiperidin-4-yloxy)-2-pyridin-4-yl-9,10-dihydro-4H-3,10a-diaza-benzo[f]azulene], the inhibitory constant (Ki) is less than 1000 nM.
Consider `Cc1c(-c2ccccn2)nc2n1CCc1ccccc1C2OC1CCN(C)CC1` (centres unmarked) [Example 251, 1-methyl-4-(1-methylpiperidin-4-yloxy)-2-pyridin-2-yl-9,10-dihydro-4H-3,10a-diaza-benzo[f]azulene], for which the inhibition constant Ki is less than 300 nM.
As for `COC(=O)c1c(-c2ccccc2)nc2n1CCc1ccccc1C2OC1CCN(C)CC1` (centres unmarked) [Example 256, 4-(1-methylpiperidin-4-yloxy)-2-phenyl-9,10-dihydro-4H-3,10a-diaza-benzo[f]azulene-1-carboxylic acid methyl ester], the inhibition constant Ki was less than 300 nM.
In turn, `C=C(C)Cc1nc2n(c1C)CCc1ccccc1C2OC1CCN(C)CC1` (centres unmarked) [Example 260, 1-methyl-2-(2-methylallyl)-4-(1-methylpiperidin-4-yloxy)-9,10-dihydro-4H-3,10a-diaza-benzo[f]azulene] returned a Ki of less than 300 nM.
As to `CN1CCC(OC2c3ccccc3CCn3c2nc(Cc2ccccc2)c3C#N)CC1` (centres unmarked) [Example 263, 2-benzyl-4-(1-methylpiperidin-4-yloxy)-9,10-dihydro-4H-3,10a-diaza-benzo[f]azulene-1-carbonitrile], the inhibitory constant (Ki) is less than 300 nM.
For the molecule `CN(C)CCOC1c2ccccc2CCn2c1nc(I)c2I` (centres unmarked) [Example 264, [2-(1,2-diiodo-9,10-dihydro-4H-3,10a-diaza-benzo[f]azulen-4-yloxy)-ethyl]-dimethyl-amine], the Ki is less than 1000 nM.
`Ic1nc2n(c1I)CCc1ccccc1C2OCCN1CCCCC1` (centres unmarked) [Example 265, 1,2-diiodo-4-(2-piperidin-1-yl-ethoxy)-9,10-dihydro-4H-3,10a-diaza-benzo[f]azulene]: the inhibition constant Ki is less than 1000 nM.
Consider `C=C(C)Cc1nc2n(c1C(N)=O)CCc1ccccc1C2OC1CCN(C)CC1` (centres unmarked) [Example 266, 2-(2-methylallyl)-4-(1-methylpiperidin-4-yloxy)-9,10-dihydro-4H-3,10a-diaza-benzo[f]azulene-1-carboxylic acid amide], for which the inhibition constant Ki is less than 300 nM.
On the same count and under the same terms, as for `CN1CCC(OC2c3ccccc3CCn3c2nc(I)c3I)C1` (centres unmarked) [Example 268, 1,2-diiodo-4-(1-methylpyrrolidin-3-yloxy)-9,10-dihydro-4H-3,10a-diaza-benzo[f]azulene], the figure is less than 300 nM; as for `CN1C2CCC1CC(OC1c3ccccc3CCn3c1nc(I)c3I)C2` (centres unmarked) [Example 269, 1,2-diiodo-4-(8-methyl-8-aza-bicyclo[3.2.1]oct-3-yloxy)-9,10-dihydro-4H-3,10a-diaza-benzo[f]azulene], less than 1000 nM.
The molecule `CN(C)CCCOC1c2ccccc2CCn2c1nc(I)c2I` (centres unmarked) [Example 270, [3-(1,2-diiodo-9,10-dihydro-4H-3,10a-diaza-benzo[f]azulen-4-yloxy)-propyl]-dimethyl-amine] registered a Ki of less than 1000 nM.
As to `Ic1nc2n(c1I)CCc1ccccc1C2OC1CN2CCC1CC2` (centres unmarked) [Example 271, 4-(1-azabicyclo[2.2.2]oct-3-yloxy)-1,2-diiodo-9,10-dihydro-4H-3,10a-diaza-benzo[f]azulene oxalate], the inhibition constant Ki was less than 1000 nM.
The molecule `CN1CCC(OC2c3ccccc3CCn3c2nc(-c2ccccc2Cl)c3C#N)CC1` (centres unmarked) [Example 272, 2-(2-chlorophenyl)-4-(1-methyl-piperidin-4-yloxy)-9,10-dihydro-4H-3,10a-diaza-benzo[f]azulene-1-carbonitrile oxalate] gave a Ki of less than 30 nM.
Take `CN1CCC(OC2c3ccccc3CCn3c2nc(-c2ccccc2Cl)c3C(N)=O)CC1` (centres unmarked) [Example 273, 2-(2-chlorophenyl)-4-(1-methylpiperidin-4-yloxy)-9,10-dihydro-4H-3,10a-diaza-benzo[f]azulene-1-carboxylic acid amide]: the inhibition constant (Ki) is less than 300 nM.

Values taken from patent publication US9255101B2 (BIOPROJECT, priority 2012, dated 2016).
